Assays:
[1] = system: primary rat cortical neuron; test: Cell viability (MTT) from Aβ-induced neurotoxicity; type: cell-based; conditions: for Neuroprotection: Aβ-induced primary rat cortical neuronal death
Description: To establish whether the derived selective JNK3 inhibitor actually has the ability to protect neurons from amyloid β-induced neuronal cell death, which is known as the pathogenesis of Alzheimer’s disease, we performed cytotoxicity experiments using Aβ 42, which is known as the most toxic fragment of the amyloid protein. The amyloid-β is known to mainly cause apoptosis during cell death, so it was confirmed whether the derived selective JNK3 inhibitors affect the activation (cleavage) of caspase-3, which are apoptosis-related signaling substances. […] This means that selective JNK3 inhibitors can inhibit apoptosis signaling by amyloid-β in neurons, thereby inhibiting apoptosis. Additionally, we confirmed that JNK activation was induced by amyloid-β in neurons, and the derived selective JNK3 inhibitors could inhibit JNK activation induced by amyloid-β. […] Then, the experiments for JNK3 inhibitors’ effect on the viability of neurons were conducted for five 6-dihydroxy benzimidazoles (35a-35e) by comparing it with previously published resveratrol as a positive control. On the 5th day of rat primary cortical neuron differentiation, each compound was pre-treated for 90 min and then treated with 10 μM Aβ 42 (HIFP-treated) for 24 or 48 h, and cell viability was measured by MTT assay.
In initial experiments, rat hippocampal cells grown in serum-free neurobasal media containing B27 supplements at day 6 were treated with different concentrations of Aβ1–42 or Aβ1–40 for 24 h and then the cell viability was measured by colorimetric MTT assay. Aggregated Aβ1–42 and Aβ1–40 caused up to 40–60% cell death at concentrations ranging from […]. […] Resveratrol was active against various amyloid-related peptides including Aβ1–42, the most neurotoxic amyloid derivative present in the AD brain. […] Primary Rat Cortex Neurons, Sprague Dawley (Gibco, A36512, Fisher Scientific, Göteborg, Sweden), were cultured in Neurobasal™ Plus culture medium (Gibco, A3582901 Fisher Scientific, Göteborg, Sweden), supplemented with B-27™ Supplement (Gibco, A3582801 Fisher Scientific, Göteborg, Sweden) and 0.5 mM GlutaMAX™ Supplement (Gibco, 35050061 Fisher Scientific, Göteborg, Sweden) at 37 °C in a humidified 5% CO2 atmosphere. We plated –2 × 10^5 live cells per well in a poly-D-lysine/laminin coated 24-well plate. For neural differentiation, half of the medium was replaced with fresh complete medium every third day. On day 6, we removed half the volume of media from the culture plate, added an equal amount of complete culture media containing test compounds or vehicle to each well, and incubated them for 90 min at 37 °C and 5% CO2. Immediately prior to use, amyloid β-Protein (1–42) (HFIP-treated) (Bachem, 4090148.0100) was dissolved in 1% NH4OH, further diluted with culture medium, and added into the plates to a final concentration of 10 μM. Cells were incubated for 24 h with vehicle control or test compounds in the presence or absence of Aβ42. Cell viability was measured using the MTT [3-(4, 5-dimethylthiazol-2-yl)-2,5-diphenyltetrazolium bromide] assay. MTT solution was added into each well at a final concentration of 0.5 mg/mL, and cells were incubated at 37 °C for 4 h. The absorbance was detected at 540 nm (reference 650 nm) with a microplate reader. All results were normalized to OD values measured from the vehicle control (DMSO). […]
Primary Rat Cortex Neurons, Sprague Dawley (Gibco, A36512) were cultured in Neurobasal™ Plus culture medium (Gibco, A3582901), supplemented with B-27™ Supplement (Gibco, A3582801) and 0.5mM GlutaMAX™ Supplement (Gibco, 35050061) at 37 °C in a humidified 5% CO2 atmosphere. Plate ~2 × 10^5 live cells per well in a poly-D-lysine/laminin coated 24-well plate. For neural differentiation, half of the medium was replaced with fresh complete medium every third day. On day 6, remove half the volume of media from the culture plate and add an equal amount of complete culture media […]

JNK1 = biological target: T1, JNK1 (Homo sapiens, UniProt P45983); test: Kinase HotSpot assay, JNK1; type: biochemical
T1 construct: purchased Reaction Biology Corp

ALK = biological target: T2, ALK (Homo sapiens, UniProt Q9UM73); test: Kinase panel screening 1 μM; type: biochemical; conditions: read-out: enzymatic inhibition ALK
T2 construct: purchased Reaction Biology Corp. (Kinase HotSpot)

c-Src = biological target: T3, c-Src (Homo sapiens, UniProt P12931); test: Kinase panel screening 1 μM; type: biochemical; conditions: read-out: enzymatic inhibition c-Src
T3 construct: purchased Reaction Biology Corp. (Kinase HotSpot)

PDK1/PDHK1 = biological target: T4, PDK1/PDHK1 (Homo sapiens, UniProt Q15118); test: Kinase panel screening 1 μM; type: biochemical; conditions: read-out: enzymatic inhibition PDK1/PDHK1
T4 construct: purchased Reaction Biology Corp. (Kinase HotSpot)

SYK = biological target: T5, SYK (Homo sapiens, UniProt P43405); test: Kinase panel screening 1 μM; type: biochemical; conditions: read-out: enzymatic inhibition SYK
T5 construct: purchased Reaction Biology Corp. (Kinase HotSpot)

FGFR3 = biological target: T6, FGFR3 (Homo sapiens, UniProt P22607); test: Kinase panel screening 1 μM; type: biochemical; conditions: read-out: enzymatic inhibition FGFR3
T6 construct: purchased Reaction Biology Corp. (Kinase HotSpot)

JNK2 = biological target: T7, JNK2 (Homo sapiens, UniProt P45984); test: Kinase HotSpot assay, JNK2; type: biochemical
T7 construct: purchased Reaction Biology Corp

AXL = biological target: T8, AXL (Homo sapiens, UniProt P30530); test: Kinase panel screening 1 μM; type: biochemical; conditions: read-out: enzymatic inhibition AXL
T8 construct: purchased Reaction Biology Corp. (Kinase HotSpot)

AKT1 = biological target: T9, AKT1 (Homo sapiens, UniProt P31749); test: Kinase panel screening 1 μM; type: biochemical; conditions: read-out: enzymatic inhibition AKT1
T9 construct: purchased Reaction Biology Corp. (Kinase HotSpot)

PKA = biological target: T10, PKA (Homo sapiens, UniProt P17612); test: Kinase panel screening 1 μM; type: biochemical; conditions: read-out: enzymatic inhibition PKA
T10 construct: purchased Reaction Biology Corp. (Kinase HotSpot)

AXL (R499C) = biological target: T11, AXL (R499C) (Homo sapiens, UniProt P30530, R499C); test: Kinase panel screening 1 μM; type: biochemical; conditions: read-out: enzymatic inhibition AXL (R499C)
T11 construct: purchased Reaction Biology Corp. (Kinase HotSpot)

ERK1 = biological target: T12, ERK1 (Homo sapiens, UniProt P27361); test: Kinase panel screening 1 μM; type: biochemical; conditions: read-out: enzymatic inhibition ERK1
T12 construct: purchased Reaction Biology Corp. (Kinase HotSpot)

Aurora A = biological target: T13, Aurora A (Homo sapiens, UniProt O14965); test: Kinase panel screening 1 μM; type: biochemical; conditions: read-out: enzymatic inhibition Aurora A
T13 construct: purchased Reaction Biology Corp. (Kinase HotSpot)

KDR/VEGFR2 = biological target: T14, KDR/VEGFR2 (Homo sapiens, UniProt P35968); test: Kinase panel screening 1 μM; type: biochemical; conditions: read-out: enzymatic inhibition KDR/VEGFR2
T14 construct: purchased Reaction Biology Corp. (Kinase HotSpot)

ABL1 = biological target: T15, ABL1 (Homo sapiens, UniProt P00519); test: Kinase panel screening 1 μM; type: biochemical; conditions: read-out: enzymatic inhibition ABL1
T15 construct: purchased Reaction Biology Corp. (Kinase HotSpot)

JNK3(h) = biological target: T16, JNK3(h) (Homo sapiens, UniProt P53779); test: Kinase HotSpot radiometric assay, JNK3; type: biochemical
T16 construct: purchased Reaction Biology Corp
T16 sequence (P53779 whole entry): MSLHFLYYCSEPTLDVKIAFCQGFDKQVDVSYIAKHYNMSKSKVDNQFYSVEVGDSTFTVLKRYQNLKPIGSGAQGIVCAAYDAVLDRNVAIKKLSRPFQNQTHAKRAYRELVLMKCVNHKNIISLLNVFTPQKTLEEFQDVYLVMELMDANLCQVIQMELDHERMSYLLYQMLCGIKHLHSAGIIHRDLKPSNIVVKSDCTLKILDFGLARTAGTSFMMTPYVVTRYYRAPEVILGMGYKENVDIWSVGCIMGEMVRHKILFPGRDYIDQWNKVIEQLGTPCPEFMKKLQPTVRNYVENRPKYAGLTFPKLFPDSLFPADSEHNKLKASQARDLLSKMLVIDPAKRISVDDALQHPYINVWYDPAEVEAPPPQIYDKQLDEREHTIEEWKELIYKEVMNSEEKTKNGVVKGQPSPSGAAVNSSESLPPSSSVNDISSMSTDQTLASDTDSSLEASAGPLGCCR

T1 sequence (P45983 whole entry): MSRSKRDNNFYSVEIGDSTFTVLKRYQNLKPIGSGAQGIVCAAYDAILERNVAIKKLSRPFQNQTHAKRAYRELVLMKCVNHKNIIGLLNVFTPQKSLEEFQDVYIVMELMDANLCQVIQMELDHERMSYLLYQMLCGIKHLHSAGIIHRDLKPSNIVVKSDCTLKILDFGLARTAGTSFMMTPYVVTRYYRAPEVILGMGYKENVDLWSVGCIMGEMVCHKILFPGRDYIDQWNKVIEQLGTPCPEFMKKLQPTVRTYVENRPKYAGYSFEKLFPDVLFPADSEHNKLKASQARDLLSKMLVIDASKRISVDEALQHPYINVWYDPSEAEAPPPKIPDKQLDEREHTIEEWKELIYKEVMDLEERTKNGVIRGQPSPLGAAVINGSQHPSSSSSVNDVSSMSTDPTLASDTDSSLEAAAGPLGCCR
T7 sequence (P45984 whole entry): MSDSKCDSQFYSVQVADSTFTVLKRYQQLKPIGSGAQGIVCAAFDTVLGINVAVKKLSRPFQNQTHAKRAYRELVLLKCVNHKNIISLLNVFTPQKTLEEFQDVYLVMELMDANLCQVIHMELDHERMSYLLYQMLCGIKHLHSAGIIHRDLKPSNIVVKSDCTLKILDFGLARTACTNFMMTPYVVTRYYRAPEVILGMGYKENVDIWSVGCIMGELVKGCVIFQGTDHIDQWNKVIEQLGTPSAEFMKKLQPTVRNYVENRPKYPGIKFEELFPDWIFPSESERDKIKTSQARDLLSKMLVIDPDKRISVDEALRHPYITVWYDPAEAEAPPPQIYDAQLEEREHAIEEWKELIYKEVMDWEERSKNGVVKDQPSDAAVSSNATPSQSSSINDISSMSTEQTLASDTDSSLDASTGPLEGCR
T14 sequence (P35968 20-1356): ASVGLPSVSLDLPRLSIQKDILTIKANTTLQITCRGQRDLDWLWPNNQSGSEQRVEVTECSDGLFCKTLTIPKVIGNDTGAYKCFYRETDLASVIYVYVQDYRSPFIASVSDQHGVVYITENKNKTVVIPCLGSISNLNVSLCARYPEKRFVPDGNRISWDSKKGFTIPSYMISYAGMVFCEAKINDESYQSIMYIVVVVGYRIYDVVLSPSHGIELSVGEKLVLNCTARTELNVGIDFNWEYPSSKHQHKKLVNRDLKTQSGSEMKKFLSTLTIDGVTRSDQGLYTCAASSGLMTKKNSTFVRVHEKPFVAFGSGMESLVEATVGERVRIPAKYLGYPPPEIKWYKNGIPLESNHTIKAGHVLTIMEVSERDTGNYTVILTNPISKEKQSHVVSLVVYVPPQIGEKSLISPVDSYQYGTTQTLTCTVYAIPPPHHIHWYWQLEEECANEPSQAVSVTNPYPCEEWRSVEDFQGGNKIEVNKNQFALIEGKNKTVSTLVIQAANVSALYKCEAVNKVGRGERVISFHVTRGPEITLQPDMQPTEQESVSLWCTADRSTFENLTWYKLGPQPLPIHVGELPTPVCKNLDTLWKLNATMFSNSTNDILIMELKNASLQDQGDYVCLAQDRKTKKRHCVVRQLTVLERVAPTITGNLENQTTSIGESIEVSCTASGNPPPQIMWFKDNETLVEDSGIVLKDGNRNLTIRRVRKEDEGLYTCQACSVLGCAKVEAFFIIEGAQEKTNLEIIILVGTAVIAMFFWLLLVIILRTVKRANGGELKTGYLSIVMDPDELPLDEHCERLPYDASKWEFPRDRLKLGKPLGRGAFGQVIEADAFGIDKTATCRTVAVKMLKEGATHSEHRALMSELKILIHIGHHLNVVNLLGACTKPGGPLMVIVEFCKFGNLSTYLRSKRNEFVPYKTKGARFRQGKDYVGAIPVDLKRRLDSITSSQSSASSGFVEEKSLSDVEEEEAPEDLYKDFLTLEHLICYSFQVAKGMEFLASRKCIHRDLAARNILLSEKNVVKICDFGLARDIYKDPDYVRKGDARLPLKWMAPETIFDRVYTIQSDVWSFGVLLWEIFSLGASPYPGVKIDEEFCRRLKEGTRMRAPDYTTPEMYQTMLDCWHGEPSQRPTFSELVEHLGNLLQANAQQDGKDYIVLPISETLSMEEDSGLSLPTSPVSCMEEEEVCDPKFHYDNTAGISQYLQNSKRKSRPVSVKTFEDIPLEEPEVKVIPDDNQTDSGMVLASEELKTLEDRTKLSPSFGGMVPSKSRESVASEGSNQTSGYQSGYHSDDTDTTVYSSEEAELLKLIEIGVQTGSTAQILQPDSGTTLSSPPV
T8 sequence (P30530 26-894): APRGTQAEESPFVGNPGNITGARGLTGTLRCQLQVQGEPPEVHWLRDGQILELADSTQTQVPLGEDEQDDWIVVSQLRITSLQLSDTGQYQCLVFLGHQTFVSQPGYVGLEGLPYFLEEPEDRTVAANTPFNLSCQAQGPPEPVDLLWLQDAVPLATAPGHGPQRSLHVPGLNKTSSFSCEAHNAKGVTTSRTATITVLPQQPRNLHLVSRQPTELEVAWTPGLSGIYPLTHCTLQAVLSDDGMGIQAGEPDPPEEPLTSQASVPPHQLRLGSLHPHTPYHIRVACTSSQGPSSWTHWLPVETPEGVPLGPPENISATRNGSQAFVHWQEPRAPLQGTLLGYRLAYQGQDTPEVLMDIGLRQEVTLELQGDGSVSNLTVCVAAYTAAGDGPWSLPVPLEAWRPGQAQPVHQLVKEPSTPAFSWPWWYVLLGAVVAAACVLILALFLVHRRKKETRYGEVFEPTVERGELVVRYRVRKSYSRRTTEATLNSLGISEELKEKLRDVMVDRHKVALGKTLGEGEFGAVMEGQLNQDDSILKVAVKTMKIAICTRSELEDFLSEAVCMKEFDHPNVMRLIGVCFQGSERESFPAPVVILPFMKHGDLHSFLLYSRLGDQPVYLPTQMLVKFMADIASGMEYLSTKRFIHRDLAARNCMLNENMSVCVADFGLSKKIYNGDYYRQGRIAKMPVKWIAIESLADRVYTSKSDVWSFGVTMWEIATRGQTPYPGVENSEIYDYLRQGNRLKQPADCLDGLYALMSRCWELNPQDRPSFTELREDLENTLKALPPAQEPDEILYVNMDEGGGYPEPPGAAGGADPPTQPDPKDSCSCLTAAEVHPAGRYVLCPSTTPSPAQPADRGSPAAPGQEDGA
T6 sequence (P22607 23-806): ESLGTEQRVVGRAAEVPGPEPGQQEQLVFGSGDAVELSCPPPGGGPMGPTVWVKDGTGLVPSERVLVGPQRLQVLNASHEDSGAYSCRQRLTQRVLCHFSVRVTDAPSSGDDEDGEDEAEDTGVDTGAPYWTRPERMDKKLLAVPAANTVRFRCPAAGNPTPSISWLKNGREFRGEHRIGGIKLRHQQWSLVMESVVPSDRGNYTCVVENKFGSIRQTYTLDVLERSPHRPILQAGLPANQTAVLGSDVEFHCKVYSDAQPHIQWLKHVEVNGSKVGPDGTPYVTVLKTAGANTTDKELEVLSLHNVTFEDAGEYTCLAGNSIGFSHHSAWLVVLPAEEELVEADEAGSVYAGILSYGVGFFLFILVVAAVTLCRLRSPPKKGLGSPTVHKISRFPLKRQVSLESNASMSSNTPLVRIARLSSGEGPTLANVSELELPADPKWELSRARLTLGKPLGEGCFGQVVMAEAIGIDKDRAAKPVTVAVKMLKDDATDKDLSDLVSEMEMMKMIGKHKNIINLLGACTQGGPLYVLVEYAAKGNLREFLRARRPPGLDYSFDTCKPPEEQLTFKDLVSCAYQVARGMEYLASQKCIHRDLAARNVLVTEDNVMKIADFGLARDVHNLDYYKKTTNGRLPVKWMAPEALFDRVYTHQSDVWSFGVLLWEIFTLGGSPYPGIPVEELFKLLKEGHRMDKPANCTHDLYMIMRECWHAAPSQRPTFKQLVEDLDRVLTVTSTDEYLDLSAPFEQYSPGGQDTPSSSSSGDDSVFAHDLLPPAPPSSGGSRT
T9 sequence (P31749 whole entry): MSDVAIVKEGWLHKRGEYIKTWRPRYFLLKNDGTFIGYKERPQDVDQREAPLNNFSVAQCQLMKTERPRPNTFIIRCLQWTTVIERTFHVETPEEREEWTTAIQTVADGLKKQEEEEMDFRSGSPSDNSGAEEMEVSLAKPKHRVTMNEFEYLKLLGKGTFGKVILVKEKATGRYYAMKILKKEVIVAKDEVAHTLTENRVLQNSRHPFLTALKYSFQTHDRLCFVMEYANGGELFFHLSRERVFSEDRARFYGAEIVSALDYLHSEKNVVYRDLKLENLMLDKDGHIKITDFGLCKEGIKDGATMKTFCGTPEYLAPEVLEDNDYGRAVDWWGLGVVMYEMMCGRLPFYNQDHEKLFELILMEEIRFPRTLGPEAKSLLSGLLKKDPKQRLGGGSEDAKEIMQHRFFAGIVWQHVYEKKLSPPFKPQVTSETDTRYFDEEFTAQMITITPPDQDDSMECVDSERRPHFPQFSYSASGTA
T11 sequence (P30530 26-894 R499C): as the sequence (P30530 26-894) above, with R474C counted along it

In the case of `O=C(C1CC1)N1CCC[C@H](Nc2nccc(-n3c(-c4ccc5c(c4)OCCO5)nc4cc(O)c(O)cc43)n2)C1` [35b, (S)-Cyclopropyl(3-((4-(2-(2,3-dihydrobenzo[b][1,4]dioxin-6-yl)-5,6-dihydroxy-1H-benzo[d]imidazol-1-yl)pyrimidin-2-yl)amino)piperidin-1-yl)methanone], the Neuroprotection [1] is reported as 95.7%, the Neuroprotection ([1]; listed as Present report) is reported as > 95.7 ± 2.9% and the “Cell viability, Mean” value ([1]; pre-treated 90 min, then 10 μM Aβ42, MTT, normalized to vehicle control (DMSO), compound concentration not given) is reported as 95.7 ± 2.9%. For the same compound, the IC50 (JNK1) was > 10000 nM, the inhibition at 1 µM (JNK1; 1 μM, read-out: enzymatic inhibition JNK1) was 9% and the “selectivity over JNK1” value (JNK1; JNK3 versus JNK1) was > 1000 fold. For the same compound, the inhibition at 1 µM (ALK) was 12.5%, the inhibition at 1 µM (c-Src) was 19.3% and the inhibition at 1 µM (PDK1/PDHK1) was 0%. The inhibition at 1 µM (SYK) was 1.73%, the inhibition at 1 µM (FGFR3) was 25.9% and the IC50 (JNK2) was 898 nM. The inhibition at 1 µM (JNK2; 1 μM, read-out: enzymatic inhibition JNK2) was 38%, the inhibition at 1 µM (AXL) was 6.37% and the inhibition at 1 µM (AKT1) was 0%. The inhibition at 1 µM (PKA) was 0%, the inhibition at 1 µM (AXL (R499C)) was 0.64% and the inhibition at 1 µM (ERK1) was 0%. It also gave an inhibition at 1 µM (Aurora A) of 25.6%, an inhibition at 1 µM (KDR/VEGFR2) of 5.49% and an inhibition at 1 µM (ABL1) of 20.5%. It also gave an inhibition at 1 µM (JNK3(h); 1 μM, read-out: enzymatic inhibition JNK3) of 90% and an IC50 (JNK3(h); ATP 10 μM, substrate ATF2 5 μM, read-out: JNK3 inhibitory activity IC50) of 9.7 nM.

Source: PMC8539420, “Discovery of a Potent and Selective JNK3 Inhibitor with Neuroprotective Effect Against Amyloid β-Induced Neurotoxicity in Primary Rat Neurons” (International Journal of Molecular Sciences, 2021)
